# How the values were obtained:
# colon cancer (Caco2) = experiment: MTT cytotoxicity assay, colon cancer (Caco2); assay type: cell-based
# Text: (§1) The cell lines laboratory at Vacsera, Dokkey, Giza, Egypt provided colon cancer (Caco2), cervical cancer (HeLa), prostate cancer (PC3), breast cancer (MCF7), hepatocellular carcinoma (HepG2) and normal human fetal lung fibroblast (WI38). The sterility of the process was maintained using a laminar airflow cabinet. The Roswell Park Memorial Institute medium (RPMI 1640) was used to sustain the cell culture. […] The 10% heat-inactivated fetal bovine serum was used to supplement the medium. The 3-(4,5-dimethylthiazol-2-yl)-2,5-diphenyl-2H-tetrazolium bromide (MTT) assay was employed to measure cytotoxicity. A purple formazan was created from the yellow MTT via a mitochondrial reduction. For inoculation, a 96-well microplate was filled with 1 × 10^5 cells per well in 100 μL of Roswell Park Memorial Institute medium (RPMI 1640). Conditions of 5% CO2, 37 °C and 95% humidity were used to incubate the microplate for 24 h to produce a completely formed monolayer sheet. After the cells formed a confluent layer, the growth media was decanted from 96-well microplates. […] Confluent cell monolayers were injected with 0.1 mL of the extract at each concentration using a multichannel pipette, and then they were dispersed throughout the 96 wells. The cells that were treated with the extracts were incubated at 37 °C and 5% CO2 for 24 h. […] The optical density at 560 nm was determined using a microplate reader. […]
# cervical cancer (HeLa) = experiment: MTT cytotoxicity assay, cervical cancer (HeLa); assay type: cell-based
# Text: as §1
# prostate cancer (PC3) = experiment: MTT cytotoxicity assay, prostate cancer (PC3); assay type: cell-based
# Text: as §1
# breast cancer (MCF7) = experiment: MTT cytotoxicity assay, breast cancer (MCF7); assay type: cell-based
# Text: as §1
# [1] = system: hepatocellular carcinoma (HepG2); experiment: MTT cytotoxicity assay, hepatocellular carcinoma (HepG2); assay type: cell-based
# Text: as §1
# [2] = system: normal human fetal lung fibroblast (WI38); experiment: MTT cytotoxicity assay, normal fibroblast (WI38); assay type: cell-based; conditions: WI-38, mean ± standard deviation
# Text: as §1
# [3] = system: tumor microtubule proteins of cancer cells; set-up: method as in doi:10.1016/j.molstruc.2022.132636, PMID 22721782; conditions: cited from earlier work
Compound,"IC50 (colon cancer (Caco2); Homo sapiens, Caco-2, MTT assay, colon cancer (Caco2), mean ± standard deviation) [µg/mL]",SI: selectivity index (colon cancer (Caco2); IC50 of non-cancer cell line (WI38) / IC50 of Caco2),"IC50 (cervical cancer (HeLa); Homo sapiens, MTT assay, cervical cancer (HeLa), mean ± standard deviation) [µg/mL]",SI: selectivity index (cervical cancer (HeLa); IC50 of non-cancer cell line (WI38) / IC50 of HeLa),SI: selectivity index (prostate cancer (PC3); IC50 of non-cancer cell line (WI38) / IC50 of PC3),"IC50 (prostate cancer (PC3); MTT assay, prostate cancer (PC3), mean ± standard deviation) [µg/mL]","IC50 (breast cancer (MCF7); Homo sapiens, MTT assay, breast cancer (MCF7), mean ± standard deviation) [µg/mL]",SI: selectivity index (breast cancer (MCF7); IC50 of non-cancer cell line (WI38) / IC50 of MCF7),"IC50 ([1]; Homo sapiens, MTT assay, hepatocellular carcinoma (HepG2), mean ± standard deviation) [µg/mL]",SI: selectivity index ([1]; IC50 of non-cancer cell line (WI38) / IC50 of HepG2),IC50 [2] [µg/mL],antitumor effect on assembly of tumor microtubule proteins [3]
"COc1cccc2c1C(=O)c1c(O)c3c(c(O)c1C2=O)C[C@@](O)(C(=O)CO)C[C@@H]3O[C@H]1C[C@H](N)[C@H](O)[C@H](C)O1 [Doxorubicin, doxorubicin]",70.1 ± 1,0.7,40 ± 2,1.2,1.3,38 ± 2,36 ± 6,1.4,44 ± 3,1.1,51 ± 4,
Calystegine B,,,,,,,,,,,,preventing the assembly of tumor microtubule proteins
